Source: paper PMC7782168, “Synthesis, telomerase inhibitory and anticancer activity of new 2-phenyl-4H-chromone derivatives containing 1,3,4-oxadiazole moiety” (Journal of Enzyme Inhibition and Medicinal Chemistry, 2020)

What was measured:
MGC-803 cells [1] = experiment: Apoptosis assay, Annexin V-FITC/PI flow cytometry; type: cell-based, human; conditions: 48 h, untreated 4.27%
Experimental: For cell apoptosis analysis, we employed annexin V-FITC/PI apoptosis detection kit (BestBio, China). MGC-803 cells in logarithmic growth phase were treated with compound A33 at different concentrations for 48 h. Cells were collected in cold PBS by centrifugation for 5 min at 1000 g. And then cells were re-suspended at a buffer (1 × 10^6 cells/mL), stained with FITC-labeled annexin V and PI for 20 min in the dark and immediately analysed on FACSVerse Flow Cytometer (Becton Dickinson).
To determine whether compound A33 meditated inhibition of proliferation was related with apoptosis, MGC-803 cells was selected for examination. The Annexin V-FITC/PI apoptosis detection kit was used in cell apoptosis analysis. […] This is consistent with the fact that telomerase inhibitors can induce apoptosis and thus inhibit the unlimited proliferation of tumour cells.
Figure 4. Percentage of apoptotic cells was determined in MGC-803 cells by Annexin-V FITC/PI staining. MGC-803 cells were treated with increasing concentrations of compound A33 for 48 h and stained with Annexin-V FITC/PI. Apoptotic ratio increased, accompanied with the increase of concentration. TEXT PRINTED IN THE PICTURE: A33: Q1-UL(1.08%) (3μM); Q1-UR(9.20%) (3μM); Q1-LL(87.53%) (3μM); Q1-LR(2.19%) (3μM); Q1-UL(4.60%) (6μM); Q1-UR(29.31%) (6μM); Q1-LL(38.09%) (6μM); Q1-LR(28.00%) (6μM); Q1-UL(4.54%) (9μM); Q1-UR(49.18%) (9μM); Q1-LL(8.50%) (9μM); Q1-LR(37.78%) (9μM) DOUBTS OF THE COPYIST ABOUT THIS PICTURE: A33 3μM, Q1-UR: 9.20% partly covered by plot points, first digit 9 or 8 / A33 6μM, Q1-UR: 29.31% partly covered by plot points, digits not fully certain / A33 9μM, Q1-UR: 49.18% partly covered by plot points, digits not fully certain

[2] = test system: SMMC-7721 (human hepatoma cell); experiment: In vitro anticancer (antiproliferative) MTT assay, SMMC-7721; type: cell-based; conditions: Homo sapiens, SMMC-7721, mean ± SD of three experiments in triplicate
Experimental: (§1) A375, MDA-MB-231, MGC-803, SMMC-7721, SGC-7901 and L-02 cell lines were cultured in DMEM medium supplemented with 10% (V/V) heat-inactivated fetal bovine serum (FBS) (Biological Industries, Israel) along with 100 U/mL penicillin and […] streptomycin (Beyotime, China). Cells were grown in a humidified 5% CO2 atmosphere at 37 °C and maintained in a logarithmic growth phase for all experiments.
(§2) 2.5. Anticancer assay[23]

NHP2 = experiment: Western blotting of NHP2 expression in MGC-803 cells; type: cell-based, human; conditions: MGC-803 cells, 3, 6, 9 µM, 48 h
Experimental: (§3) Human MGC-803 cells were lysed with RIPA lysis buffer (Beyotime, China). Whole extracts were prepared, and protein concentration was detected using a BCA protein assay kit (Beyotime, China). The protein samples were separated by SDS-PAGE and blotted onto a PVDF membrane (Millipore Corp, Billerica, MA). After blockade of non-specific protein binding, […] blots were incubated at 4 °C for 8 h with primary antibodies. After extensive washing in TBS/Tween-20, the membranes were incubated at room temperature for 1 h with secondary antibodies. After washed in TBS/Tween-20, the blots were processed with distilled water for detection of antigen using the enhanced chemiluminescence system. Proteins were visualised with ECL-chemiluminescent kit (ECL-plus, Thermo Scientific).
(§4) Dyskerin-NOP10-NHP2, trimer proteins are the core components of telomerase, playing a key role in the stabilisation, activation and assembly of telomerase, and the loss of dyskerin function can influence telomerase activity. Dyskerin over-expression associated with a variety of tumour types has been reported. […] Meanwhile, NHP2[39] and NOP10[40], as the important components of dyskerin-NHP2-NOP10 trimer, had also been assessed together. […]
(§5) Figure 5. […] The proteins expression of Dyskerin, NOP10 and NHP2 were analysed by Western blotting. The results are expressed as relative expression against control expression. n = 3. […]

[3] = test system: MDA-MB-231 (human breast cancer cell); experiment: In vitro anticancer (antiproliferative) MTT assay, MDA-MB-231; type: cell-based; conditions: Homo sapiens, MDA-MB-231, mean ± SD of three experiments in triplicate
Experimental: as §1, §2

[4] = test system: human normal liver cell (L-02); experiment: Toxicity against human normal liver cells, MTT assay; type: cell-based; conditions: triplicate
Experimental: as §1, §2
In order to determine the selective cytotoxicity of selected compounds, we subsequently conducted a proliferative inhibition assay with human normal liver cell (L-02). […] Therefore, in combination with the above points, it is quite meaningful to further explore the mechanisms of this compound.

[5] = test system: MGC-803 (human gastric cancer cell); experiment: In vitro anticancer (antiproliferative) MTT assay, MGC-803; type: cell-based; conditions: Homo sapiens, MGC-803, mean ± SD of three experiments in triplicate
Experimental: as §1, §2

NOP10 = experiment: Western blotting of NOP10 expression in MGC-803 cells; type: cell-based, human; conditions: MGC-803 cells, 3, 6, 9 µM, 48 h
Experimental: as §3, §4, §5

dyskerin = experiment: Western blotting of dyskerin expression in MGC-803 cells; type: cell-based, human; conditions: MGC-803 cells, 3, 6, 9 µM, 48 h
Experimental: as §3, §4, §5

MGC-803 cells [6] = experiment: Cell cycle analysis by flow cytometry (PI staining); type: cell-based, human; conditions: 48 h
Experimental: For cell cycle analysis, cell cycle kit (Beyotime, China) was performed. MGC-803 cells were treated with compound A33 at different concentrations for 48 h. Untreated and treated cells were harvested, and then MGC-803 cells were washed three times using cold PBS. And then cells were fixed in 70% ethanol at −20 °C for 1 h. After fixation, cells were washed with cold PBS and stained with 0.5 ml of propidium iodide (PI) staining buffer, which contain […] RNase A and 50 µg/mL PI, at 37 °C for 30 min in the dark. Analyses were conducted on FACSVerse Flow Cytometer (Becton Dickinson). The experiments were repeated three times.
To verify whether cell cycle arrest leads to decrease cells proliferation, we used flow cytometric analysis to measure the effect of this compound on induction of cell cycle. […] In a word, this compound can induce cell cycle arrest at G2/M phase in a concentration-dependent manner, delaying cell cycle progression, thereby resulting in cell proliferation inhibition.
Figure 3. Cell cycle distribution induced by compound A33 was measured in MGC-803 cells. Cells were treated with compound A33 of 3, 6 and 9 μM for 48 h. Samples were analysed by flow cytometry and received results were analysed by modifit software. TEXT PRINTED IN THE PICTURE: A33: Dip G1:39.11% (3μM); Dip G2:29.46% (3μM); Dip S: 31.44% (3μM); Dip G1:35.72% (6μM); Dip G2:50.46% (6μM); Dip S: 13.82% (6μM); Dip G1:32.62% (9μM); Dip G2:55.13% (9μM); Dip S: 12.25% (9μM)

[7] = test system: SGC-7901 (human gastric cancer cell); experiment: In vitro anticancer (antiproliferative) MTT assay, SGC-7901; type: cell-based; conditions: Homo sapiens, SGC-7901, mean ± SD of three experiments in triplicate
Experimental: as §1, §2

[8] = test system: A375 (human melanoma cell); experiment: In vitro anticancer (antiproliferative) MTT assay, A375; type: cell-based; conditions: Homo sapiens, A-375, mean ± SD of three experiments in triplicate
Experimental: as §1, §2

telomerase = target: T1, telomerase (Homo sapiens, UniProt O14746); experiment: Telomerase activity assay using MGC-803 cells extract; type: biochemical; conditions: mean ± SD
T1 construct: assayed for telomerase activity using MGC-803 cells extract; endogenous in cells; host or cells: MGC-803 cell extract
T1 sequence (O14746 whole entry): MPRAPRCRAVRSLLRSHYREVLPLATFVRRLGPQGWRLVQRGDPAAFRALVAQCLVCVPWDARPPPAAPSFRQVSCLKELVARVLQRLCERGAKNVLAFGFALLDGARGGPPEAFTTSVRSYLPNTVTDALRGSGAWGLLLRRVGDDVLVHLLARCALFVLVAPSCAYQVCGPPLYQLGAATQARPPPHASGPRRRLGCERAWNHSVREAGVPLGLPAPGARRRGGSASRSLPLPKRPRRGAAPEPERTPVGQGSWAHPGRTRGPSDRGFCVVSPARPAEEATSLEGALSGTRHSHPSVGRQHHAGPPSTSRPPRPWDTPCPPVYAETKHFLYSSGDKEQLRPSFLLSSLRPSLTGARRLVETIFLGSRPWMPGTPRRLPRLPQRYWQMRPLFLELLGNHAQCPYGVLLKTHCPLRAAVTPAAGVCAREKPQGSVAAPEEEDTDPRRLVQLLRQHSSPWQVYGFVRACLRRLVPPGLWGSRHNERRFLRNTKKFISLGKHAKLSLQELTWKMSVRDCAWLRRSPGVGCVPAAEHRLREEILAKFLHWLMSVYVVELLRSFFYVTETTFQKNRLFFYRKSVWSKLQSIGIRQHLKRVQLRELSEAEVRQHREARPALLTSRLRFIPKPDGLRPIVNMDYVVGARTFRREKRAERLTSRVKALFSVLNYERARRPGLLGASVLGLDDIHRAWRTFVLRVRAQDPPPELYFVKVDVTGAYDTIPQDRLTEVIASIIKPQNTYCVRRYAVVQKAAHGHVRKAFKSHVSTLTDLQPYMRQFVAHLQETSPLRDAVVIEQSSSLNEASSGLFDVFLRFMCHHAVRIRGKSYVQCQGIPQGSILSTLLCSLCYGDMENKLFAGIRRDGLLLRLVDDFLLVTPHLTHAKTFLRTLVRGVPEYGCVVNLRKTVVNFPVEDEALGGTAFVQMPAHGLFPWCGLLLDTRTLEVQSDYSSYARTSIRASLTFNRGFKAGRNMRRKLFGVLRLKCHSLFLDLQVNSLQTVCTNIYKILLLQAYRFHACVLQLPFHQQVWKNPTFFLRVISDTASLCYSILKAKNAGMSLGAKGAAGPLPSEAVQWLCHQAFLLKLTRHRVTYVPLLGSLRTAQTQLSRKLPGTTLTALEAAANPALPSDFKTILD
T1 sequence (O60832 2-514 partner limits assumed): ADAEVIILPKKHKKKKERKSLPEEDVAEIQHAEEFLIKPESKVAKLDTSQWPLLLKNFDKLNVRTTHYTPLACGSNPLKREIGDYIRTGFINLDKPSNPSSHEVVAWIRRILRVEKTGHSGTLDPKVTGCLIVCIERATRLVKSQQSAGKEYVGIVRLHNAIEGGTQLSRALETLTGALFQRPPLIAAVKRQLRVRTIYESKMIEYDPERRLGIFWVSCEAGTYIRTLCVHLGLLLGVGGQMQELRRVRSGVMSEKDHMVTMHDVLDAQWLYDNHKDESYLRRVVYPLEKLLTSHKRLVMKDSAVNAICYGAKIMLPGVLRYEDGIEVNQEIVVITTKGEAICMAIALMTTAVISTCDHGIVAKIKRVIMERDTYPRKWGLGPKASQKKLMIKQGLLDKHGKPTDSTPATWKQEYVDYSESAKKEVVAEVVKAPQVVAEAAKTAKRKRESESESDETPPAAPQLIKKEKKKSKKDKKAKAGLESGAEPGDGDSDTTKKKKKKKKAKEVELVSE
T1 sequence (Q9NPE3 whole entry partner): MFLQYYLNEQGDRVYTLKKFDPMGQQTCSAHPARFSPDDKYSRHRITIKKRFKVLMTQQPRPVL
T1 sequence (Q9NX24 whole entry partner): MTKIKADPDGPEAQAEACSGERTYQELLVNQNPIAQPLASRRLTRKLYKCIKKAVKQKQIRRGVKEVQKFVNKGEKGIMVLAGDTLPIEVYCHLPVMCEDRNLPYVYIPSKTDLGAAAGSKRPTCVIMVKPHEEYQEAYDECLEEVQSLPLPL
T1 sequence (Q9NY12 whole entry partner): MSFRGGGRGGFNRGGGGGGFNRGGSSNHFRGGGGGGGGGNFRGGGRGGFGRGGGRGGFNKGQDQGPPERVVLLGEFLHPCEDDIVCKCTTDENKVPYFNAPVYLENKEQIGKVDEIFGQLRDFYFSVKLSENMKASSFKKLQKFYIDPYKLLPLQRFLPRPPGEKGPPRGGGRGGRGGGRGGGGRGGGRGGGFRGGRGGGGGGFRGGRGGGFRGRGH

IC50 [2]: 9.67 ± 0.82 µM
IC50 [3]: 9.89 ± 0.44 µM
IC50 [5]: 8.76 ± 0.25 µM
IC50 [7]: 10 ± 0.51 µM
IC50 [8]: 11.2 ± 0.69 µM
IC50 (telomerase): 0.44 ± 0.09 µM
Structure (SMILES): COc1cc(OC)c2c(=O)c(OCC(=O)Nc3nnc(/C=C/c4ccccc4)o3)c(-c3cc(OC)c(OC)c(OC)c3)oc2c1 [A33, (E)-2–(5,7-dimethoxy-4-oxo-2–(3,4,5-trimethoxyphenyl)-4H-chromen-3-yloxy)-N-(5-styryl-1,3,4-oxadiazol-2-yl)acetamide]
Percentage of AnnexinV-FITC binding MGC-803 cells (MGC-803 cells [1]; 3 μM (first of increasing concentrations, Figure 4)): 11.39%
Percentage of AnnexinV-FITC binding MGC-803 cells (MGC-803 cells [1]; 6 μM (second of increasing concentrations, Figure 4)): 57.31%
Percentage of AnnexinV-FITC binding MGC-803 cells (MGC-803 cells [1]; 9 μM (third of increasing concentrations, Figure 4)): 86.96%
Expression of NHP2 (NHP2): lower level than control group
IC50 [4]: 2210 ± 170 µM
Expression of NOP10 (NOP10): lower level than control group
Expression level of dyskerin protein (dyskerin): reduced in a concentration-dependent manner
G0/G1 phase distribution (Dip G1) (MGC-803 cells [6]; 3 μM): 39.11%
G2/M phase distribution (Dip G2) (MGC-803 cells [6]; 3 μM): 29.46%
S phase distribution (Dip S) (MGC-803 cells [6]; 3 μM): 31.44%
G0/G1 phase distribution (Dip G1) (MGC-803 cells [6]; 6 μM): 35.72%
G2/M phase distribution (Dip G2) (MGC-803 cells [6]; 6 μM): 50.46%
S phase distribution (Dip S) (MGC-803 cells [6]; 6 μM): 13.82%
G0/G1 phase distribution (Dip G1) (MGC-803 cells [6]; 9 μM): 32.62%
G2/M phase distribution (Dip G2) (MGC-803 cells [6]; 9 μM): 55.13%
S phase distribution (Dip S) (MGC-803 cells [6]; 9 μM): 12.25%
Increase of the G2/M phase distribution versus untreated (MGC-803 cells [6]; increasing concentrations (3, 6, 9 µM), from 9.76 to 55.13%): 45.37%
